Structures can show the parent of a compound that is named as a salt. Some results are limits rather than exact numbers.

We go through 1 molecule from patent US20220142967A1, “Methods and Compositions for the Treatment of Multiple Sclerosis” (SYMBIONYX PHARMACEUTICALS INC, priority 2018, published 2022).

The subject of data set [1] is cultured astrocytes. In words: RNA-seq of cultured astrocytes compared with MS patient white matter astrocytes (GSE83670). The data set is classed as cell-based, human. The protocol:
Previously, Waller et al. 2016 (J Neuroimmunol 299:139-146) used laser capture microdissection (LCM) to isolate astrocytes from normal appearing white matter in MS patients and CTL subjects (GEO dataset GSE83670; PMID: 27125112).
cDNA sequencing was performed by the University of Michigan sequencing core facility (50 cycle single end Illumina HiSeq 2000). The FASTX-Toolkit was used to filter reads by removing low quality sequences and initial quality assessments were performed using FastQC. Quality-filtered reads were mapped to the human genome (hg38/GRCh38, UCSC) using tophat2 with default settings, except multi-mapping of reads to multiple genome locations was disallowed (settings: -g 1 —no-coverage-search). The hg38/GRCh38 genome is the most recent release available from UCSC. HTSeq was used to tabulate the number of reads mapping to each genome feature and Cufflinks was used to calculate FPKM estimates and associated confidence intervals. RSeQC was used to assess quality of mapping and calculate the percentage of mapped reads. The negative binomial model (edgeR) was used to evaluate differential expression, with read counts normalized using the weighted trimmed mean of M-values method, and dispersions estimated using the Cox-Reid (CR)-adjusted likelihood approach. Differential expression analyses were performed using genes with detectable expression in at least 1 of 4 samples involved in a given comparison. A gene was considered to have detectable expression in a sample if the count per million mapped reads (cpm) estimate was greater than 0.20 and if the lower bound of the FPKM 95% confidence interval was greater than zero.
FIG. 3 presents in scatterplot and histogram format the results of the study on the astrocytes. Scatterplots (A) and (D) compare fold change (FC) estimates in DMF-treated (A) and IDMF-treated (D) astrocytes to LCM-dissected astrocytes in MS patients and healthy controls (CTLs). Each point represents a protein-coding gene and the light colored ellipses outline the 90% of genes closest to the bivariate mean based upon the Mahalanobis distance. The Spearman rank correlation coefficient estimate is shown (upper-left). The proportion of genes within each quadrant is indicated in the upper margin (P<0.05, Fisher's exact test), wherein the quadrants are defined by a vertical and horizontal line through the “1” in each axis with the proportion corresponding, left to right to the upper left, the upper right, the lower right and lower left quadrants, respectively. Gene set overlap is presented in (B), (C), (E) and (F) wherein genes within each set were altered with a P<0.05 threshold. P-values from the test of overlap significance are shown (bottom margin, Fisher's exact test). […]

Data set [2] deals with NRF2 (NF-E2-related factor 2) transcription factor. In words: Cignal ARE Reporter Assay, NRF2-mediated luciferase gene expression in HEK293 cells. The settings on record: HEK293, 24 h. The data set is classed as cell-based. The procedure:
2017 December; 23(14):1875-1883. doi: 10.1177/1352458517690617. Epub 2017 Feb.
The experiments were performed using HEK293 cells (Sigma, St. Louis, Mo.; cat. #85120602) seeded at 50,000 per well in a 96 well white opaque-wall tissue culture plates. Cells were transfected by mixing Cignal Reporter Assay firefly/renilla luciferase constructs (cat. # CCS-5020L; Qiagen) with Attractene Transfection Reagent (Qiagen) in Opti-MEM (ThermoFisher Scientific, Waltham, Mass.) supplemented with 1% MEM Non-essential amino acid solution without L-glutamine (Sigma; cat. #M7145). After medium change test materials were added and their effect on NRF2 induction was quantified 24 h later with the Dual-Luciferase Reporter Assay System (cat. #E1960; Promega, Madison, Wis.).
The ARE (antioxidant response element) reporter is a mixture of a Nrf2-responsive luciferase construct encoding the firefly luciferase reporter gene under the control of a minimal (m)CMV promoter and tandem repeats of the ARE transcriptional response element, and a constitutively expressing Renilla element (40:1), which acts as an internal control for normalizing transfection efficiencies and monitoring cell viability. […] Signal quantification was obtained with ThermoFisher Scientific Luminoskan Ascent Microplate Luminometer.

Data set [3] deals with T1, carboxylesterase 2 (CES2) (Homo sapiens, UniProt O00748).
T1 sequence (O00748 27-559): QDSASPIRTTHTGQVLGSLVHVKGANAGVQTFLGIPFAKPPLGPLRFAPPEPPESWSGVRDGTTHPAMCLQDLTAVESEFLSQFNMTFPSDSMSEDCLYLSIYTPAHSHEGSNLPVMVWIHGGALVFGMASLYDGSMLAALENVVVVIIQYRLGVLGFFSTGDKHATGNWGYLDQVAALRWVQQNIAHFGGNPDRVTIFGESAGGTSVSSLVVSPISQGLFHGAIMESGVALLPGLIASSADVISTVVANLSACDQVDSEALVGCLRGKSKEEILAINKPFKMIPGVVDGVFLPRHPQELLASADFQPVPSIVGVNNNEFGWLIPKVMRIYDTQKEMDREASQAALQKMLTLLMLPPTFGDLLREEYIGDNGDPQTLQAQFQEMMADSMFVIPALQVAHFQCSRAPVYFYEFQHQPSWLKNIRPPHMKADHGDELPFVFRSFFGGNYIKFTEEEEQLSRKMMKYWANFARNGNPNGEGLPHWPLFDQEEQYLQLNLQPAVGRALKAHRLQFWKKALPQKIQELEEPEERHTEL
The experiment in a line: Carboxylesterase hydrolysis IDMF v DMF. Format: in vitro ADME. The note with it: for remaining parent compound: 1 mg/ml CES2, 37° C., pH 7.4. The protocol:
IDMF and DMF were subjected to carboxylesterase hydrolysis. […] 1 mg/ml carboxylesterase 2 (CES2) was added to each solution and the solutions incubated at 37° C. for the time periods set forth in Table 5. […] Isosorbide was quantified using CAD. Mobile phase used for the study: 0.1% Formic acid in water; B: Methanol. Column: Luna C18 4.6 mm×100 mm, 5 u (Phenomenex). Flow rate: 1.0 ml/min.

As for `COC(=O)/C=C/C(=O)O[C@H]1CO[C@H]2[C@@H]1OC[C@H]2OC(=O)/C=C/C(=O)OC` [IDMF, isosorbide di-(methyl fumarate)], the “number of genes decreased by IDMF (P<0.05) and increased in MS (P<0.05)” value in data set [1] is 82 genes. Moreover, the “protein-coding genes increased by IDMF (FC>1.00) but decreased in MS patients (FC<1.00)” value in data set [1] turned out to be 35.08%. Moreover, the “correlation of genome-wide expression responses with those observed in MS patients (Spearman r)” value in data set [1] (cultured astrocytes vs. LCM-dissected MS patient astrocytes) is given as “negatively correlated”. Also, the “Fold Change v. water control (1), NRF2-mediated luciferase gene expression” value is listed as 2.78 fold in data set [2] (1 μg/ml) and 4.61 fold in data set [2] (10 μg/ml). Also, the remaining parent compound in data set [3] (0 minutes) came to 1.027 mM; in data set [3] (15 minutes) it was 0.072 mM. Also, in data set [3] (CES2, 37° C.), the “time by which essentially all is hydrolyzed” value is no more than 15 min.
